Results published in patent publication US12503426B2, “Synthetic derivatives of oleoyl-lysophosphatidylinositol (oleoyl-LPI) and uses thereof” (LIPOVEXA SRL, priority 2017, dated 2025).

How the values were obtained:
Glutag cells = assay: GLP-1 secretion by Glutag cells; assay type: cell-based, murine; conditions: Glutag cells
Method: Glutag cells were maintained in low glucose DMEM (Sigma) (1 g/L) containing 2.0 mM L-glutamine, 1.0 mM sodium pyruvate and supplemented with 10% FBS, 100 IU/ml penicillin, 100 μg/ml streptomycin at a 37° C. and 5% CO2.
Approximately 80,000 Glutag cells were plated in poly-L-lysine-coated 24-well culture plates and grown to about 80% confluence. NCI-H716 cells were seeded on growth factor reduced Matrigel™ (Becton Dickinson, Bedford, MA) in DMEM medium, supplemented with 10% FBS the day before the experiment. For NCI-H716 cells, approximately 25,000 cells were needed for this secretion experiment in order to have good stimulation with lower basal GLP-1 secretion. In brief, Glutag and NCI-H716 cells were washed twice and then incubated for 2 h with FBS-free DMEM containing 1% (M:C) alone (negative control), 10 μM forskolin as positive control (Sigma-Aldrich), or with different concentrations of Oleoyl-LPI. M:C was used as a solvent to prepare stock solutions of fatty acid derivatives and inhibitors. For secretion experiments, medium and cells were collected separately.
In separate studies, GLUTag or NCI-H716 cells were pre-treated for 1 hour with medium alone (1% DMSO, negative control), PD98059 (50 μM; Sigma Chemical Co.), H89 (10 μM; Santa Cruz) followed by treatment with oleoyl-LPI (20 μM), OEA (10 μM), AR231453(1 μM), PMA (10 μM) or forskolin (10 μM, positive control) in the presence of inhibitors, as appropriate, for about 2 h. Medium GLP-1 secretion was calculated as total GLP-1 content of medium normalised for the basal secretion of the control.
In order to investigate the role of different LPI species in enteroendocrine cells, murine (Glutag) and human (NCI-H716) L-cells were stimulated with the following different species of LPI: Arachidonyl-LPI, Stearoyl-LPI, Heptadecenoyl-LPI and oleoyl-LPI, as well as with OEA and LPC. Experiments were performed in duplicate, n=4 and the level of total GLP-1 was measured by ELISA.

NCI-H716 cells = assay: GLP-1 secretion in NCI-H716 cells, in vitro human L cells model (Examples 30-33); assay type: cell-based; conditions: for Emax: Homo sapiens, NCI-H716, 2 h; for GLP-1 biosynthesis and secretion from NCI-H716 L cells / level of GLP-1 biosynthesis and secretion compared with oleoyl-LPI: 20 μM, 2 hours; for GLP-1 biosynthesis and secretion from NCI-H716 L cells: normalized against DMSO vehicle control; for activity in inducing and/or increasing secretion of GLP-1 from cells of the GI tract: summary statement, compared with oleoyl-LPI
Method: To evaluate the GLP-1 biosynthesis and secreting capabilities of the compounds of formula I in vitro using the human-derived cell line NCI-H716, 50,000 such cells were seeded per well of a 24-well plate pre-coated with a thin layer of Matrigel (0.15 mg/ml) in RPMI complete (RPMI additioned with FBS 10%, Glucose 2 g/L, Glutamine 4 mM, Sodium Bicarbonate 2 g/L, Pen/Strep 1× pH 7.4 at 37° C.) and incubated at 37° C. in humidified 5% CO2 atmosphere to induce endocrine differentiation.
After 48 hours, media was withdrawn and cells washed once with warm HBSS (Hank's balanced salt solution) and then incubated in duplicate for 2 hours with the different dilutions of the oleoyl-LPI, OEA, DMSO (as negative control), a test compound of formula I, and KR-62436 10 μg/ml, all dissolved in RPMI serum free (RPMI complete without FBS) at 37° C. in humidified 5% CO2 incubator. Supernatant were quickly collected on ice and stored at −80° C. before quantification of GLP-1 with a commercial ELISA (EMD Millipore) specific for active-GLP-1 species.
To evaluate the GLP-1 biosynthesis and secreting capabilities of the compounds of formula I in vitro using the human-derived cell line NCI-H716, 50,000 such cells were seeded per well of a 24-well plate pre-coated with a thin layer of Matrigel (0.15 mg/ml) in RPMI complete (RPMI additioned with FBS 10%, Glucose 2 g/L, Glutamine 4 mM, Sodium Bicarbonate 2 g/L, Pen/Strep 1×pH 7.4 at 37° C.) and incubated at 37° C. in humidified 5% CO2 atmosphere to induce endocrine differentiation.
After 48 hours, media was withdrawn and cells washed twice with pre-warm HBSS (Hank's balanced salt solution) and then incubated in duplicate for 2 hours with 250 μl of 20 μM of either oleoyl-LPI, DMSO (as negative control) or a test compound of formula I, and […], all dissolved in RPMI serum free (RPMI complete without FBS) at 37° C. in humidified 5% CO2 incubator. Compounds of formula I tested were ps297b, ps316a, ps318a, ps319a, ps321a and ps323.
Supernatant were quickly collected on ice and stored at −80° C. before quantification of GLP-1 with a commercial ELISA (EMD Millipore) specific for active-GLP-1 species (e.g., GLP-1 (7-36) amide) and […]).
Compounds of formula I were tested for GLP-1 secretion in NCI-H716 cells essentially as describe in examples 30 and 31 above. EC50 GLP-1 secretion readout results were standardized relative to maximum GLP-1 secretion obtained with oleoyl-LPI. EC50 readout results were rated as low GLP-1 secretion activity (0-20% of maximum GLP-1 secretion achieved with oleoyl-LPI), moderate (21-79% of maximum GLP-1 secretion achieved with oleoyl-LPI), and high GLP-1 activity (80% and more of maximum GLP-1 secretion achieved with oleoyl-LPI). Table 3 also outlines the R1, R2 and R3 substituents of the compounds of formula I.

[1] = system: colonic cells of the GI tract obtained from guinea pig; assay: Ex vivo GLP-1 biosynthesis and secretion, guinea pig GI tract cells; assay type: cell-based
Method: To test for this, a pregnant guinea pig was anesthetized with isoflurane and sacrificed via intra-cardial injection of pentobarbital. Colon and rectum were quickly collected and intraluminal content washed out with ice-cold HBSS. After a thorough cleansing from the faecal material, and gentle scraping of the internal mucosa, the tissue was minced into 3 to 5-millimetre pieces and resuspended into 50 ml of ice cold HBSS. Pellet was spun down and washed again in 50 ml of ice-cold HBSS. Supernatant was carefully removed, and the epithelial fragments were then resuspended for 30 minutes at 37° C. into a 5 ml solution of HEPES 25 mM, collagenase-P 1 mg/ml in HBSS, pH 7.4 at 37° C.
The tissue was then pelleted and resuspended further for about 30 to 40 additional minutes at 37° C. within a 10 ml solution of 1 mg/ml collagenase-P as above.
After the digestion, about 40 ml of pre-warmed DMEM complete media was added (FBS 10%, glucose 4.5 g/L, glutamine 4 mM, sodium pyruvate 1 mM, HEPES 25 mM, sodium bicarbonate 3.7 g/L, Pen/Strep 1× and Ciprofloxacin 10 μg/ml pH 7.4 at 37° C.). Crypts and individual cells were isolated with a […] nylon strainer, spun down at 200 g for 5 minutes, resuspended into 10 ml of DMEM complete media and plated into 20 wells of a 24-well plate coated with a 3D gel of 3 mg/ml Matrigel (BD, Biosciences, Oxford, UK). After one day of incubation at 37° C. 5% CO2 in a humidified incubator, cells were washed with 500 μl of warm HBSS, and treated with 250 μl DMEM serum free (Complete medium without FBS) additioned with KR-62436 10 μg/ml and individually the following drugs or compounds: Forskolin and IBMX (20 μM each), oleoyl-LPI, and the two oleoyl-LPI analogs and/or derivatives ps297b (prepared as described in example 13) and ps316a (prepared as described in example 22) were all tested in quadruplicate at 20 μM.
After a 2-hour long incubation at 37 C 5% CO2, the supernatants were collected on ice, and quickly stored at […]. Active GLP-1 levels (7-37 amide and 7-36) were quantified on 50 μl of supernatant with an ELISA commercial kit (EMD Millipore). DMSO was used as a negative control, the combination of Forskolin and IBMX was included as positive control activators GLP-1. GLP-1 levels measured were standardized against the DMSO control.
The EC50 levels each one of oleoyl-LPI, compound ps297b and compound ps316a were also measured in quadruplicates at the conclusion of the 2 hour incubation. Guinea pig cells obtained as described above were also incubated with […] in quadruplicates and subjected to 2-hour long incubation at 37 C 5% CO2 as described above and EC50 levels measured.

[2] = NCI-H716 cells, standardized relative to maximum GLP-1 secretion obtained with oleoyl-LPI

SMILES | Emax (NCI-H716 cells; [2]) [%] | further results
CCCCC/C=C\C/C=C\C/C=C\C/C=C\CCCC(=O)NCc1ccc(O)c(OC)c1 [Arvanil, N-arachidonoyl-vanillyl-amide] |  | antagonist activity for GPR119 (inventors' conclusion) (Glutag cells): weak antagonist for GPR119; GLP-1 secretion, combination treatment (Glutag cells; Arvanil together with AR-231,453): significantly reduced GLP-1 secretion; GLP-1 secretion, combination treatment (Glutag cells; Arvanil with either OEA or LPI): significantly enhanced GLP-1 secretion
CCCCCCCC/C=C\CCCCCCCC(=O)Nc1ccc(C#N)c(F)c1 [ps308c] | 0 to 20 | 
CCCCCCCC/C=C\CCCCCCCC(=O)Nc1ccc(-c2nnn[nH]2)cc1.[Na+] [ps321a] |  | GLP-1 biosynthesis and secretion from NCI-H716 L cells (NCI-H716 cells): able to mediate GLP-1 biosynthesis and secretion; GLP-1 secretion Activity relative to oleoyl-LPI (NCI-H716 cells; [2]): Low (low GLP-1 secretion activity (0-20% of maximum GLP-1 secretion achieved with oleoyl-LPI))
CCCCC/C=C\C/C=C\CCCCCCCC(=O)Nc1ccc(C#N)cc1 [ps314b] | 0 to 20 | 
CCCCC/C=C\C/C=C\CCCCCCCC(=O)Nc1ccc(C#N)cc1F [ps319] | 0 to 20 | GLP-1 biosynthesis and secretion from NCI-H716 L cells (NCI-H716 cells): able to mediate GLP-1 biosynthesis and secretion
CCCCCCCC/C=C\CCCCCCCC(=O)Nc1ccc(-c2nnn[nH]2)cc1F [ps309a] | > 80 | activity in inducing and/or increasing secretion of GLP-1 from cells of the GI tract (NCI-H716 cells): equal to or higher than oleoyl-LPI
CCCCCCCC/C=C\CCCCCCCC(=O)Nc1cccc(C#N)c1 [ps315a] | 0 to 20 | 
CCCCCCCC/C=C\CCCCCCCC(=O)Nc1ccc(-c2nnnn2C)cc1 [ps298b] | 0 to 20 | 
CCCCCCCC/C=C\CCCCCCCC(=O)Nc1ccc(C(=O)OC)cc1 [ps293a] | 0 to 20 | 
CCCCC/C=C\C/C=C\CCCCCCCC(=O)Nc1ccc(-c2nnn[nH]2)cc1F [ps323b] | 0 to 20 | GLP-1 biosynthesis and secretion from NCI-H716 L cells (NCI-H716 cells): able to mediate GLP-1 biosynthesis and secretion
CCCCCCCC/C=C\CCCCCCCC(=O)Nc1ccc(-c2nnn(C)n2)cc1 [ps298a] | 0 to 20 | 
CCCCCCCC/C=C\CCCCCCCC(=O)Nc1ccc(C#N)cc1 [ps292a] | 0 to 20 | 
CC(C)c1noc(C2CCN(c3ncnc(Nc4ccc(S(C)(=O)=O)cc4F)c3[N+](=O)[O-])CC2)n1 [AR-231,453] |  | GLP-1 secretion (Glutag cells; two hours treatment, compound alone): significantly increases GLP-1 secretion
CCCCCCCC/C=C\CCCCCCCC(=O)Nc1ccc(O)cc1 [ps300b] | 0 to 20 | 
CCCCCCCC/C=C\CCCCCCCC(=O)Nc1ccc(-c2nnn[nH]2)c(F)c1 [ps312a] | 21 to 79 | 
CCCCCCCCCCCCCCCC(=O)Nc1ccc(-c2nnn[nH]2)cc1 [ps320c] | 0 to 20 | 
CCCCCCCC/C=C\CCCCCCCC(=O)Nc1cccc(-c2nnn[nH]2)c1 [ps318a] | > 80 | GLP-1 biosynthesis and secretion from NCI-H716 L cells (NCI-H716 cells): able to mediate GLP-1 biosynthesis and secretion; level of GLP-1 biosynthesis and secretion compared with oleoyl-LPI (NCI-H716 cells; NCI-H716 cells): higher than those achieved from oleoyl-LPI; activity in inducing and/or increasing secretion of GLP-1 from cells of the GI tract (NCI-H716 cells): equal to or higher than oleoyl-LPI
CCCCCCCC/C=C\CCCCCCCC(=O)Nc1ccc(C(=O)O)cc1 [ps294a] | 0 to 20 | 
CCCCCCCCCCCCCCCC(=O)Nc1ccc(C#N)cc1 [ps317b] | 0 to 20 | 
CCCCCCCC/C=C\CCCCCCCC(=O)Nc1ccc(OC)cc1 [ps301a] | 0 to 20 | 
CCCCC/C=C\C/C=C\CCCCCCCC(=O)Nc1ccc(-c2nnn[nH]2)cc1 [ps316a] | > 80 | GLP-1 levels compared with oleoyl-LPI ([1]; 20 μM, 2 hours): above those observed for the endogenous GRP119 ligand, oleoyl-LPI; GLP-1 biosynthesis and secretion ex vivo ([1]; 20 μM, 2 hours, standardized against DMSO control): stimulated biosynthesis and secretion; stability after incubation ex vivo ([1]; 2 hours incubation ex vivo): remained stable after 2 hours incubation ex vivo; EC50 ([1]; Cavia porcellus, ex vivo incubation 2 hours, quadruplicates): 22.4 µM; GLP-1 biosynthesis and secretion from NCI-H716 L cells (NCI-H716 cells): able to mediate GLP-1 biosynthesis and secretion; level of GLP-1 biosynthesis and secretion compared with oleoyl-LPI (NCI-H716 cells; NCI-H716 cells): higher than those achieved from oleoyl-LPI; activity in inducing and/or increasing secretion of GLP-1 from cells of the GI tract (NCI-H716 cells): equal to or higher than oleoyl-LPI
CCCCCCCC/C=C\CCCCCCCC(=O)Nc1ccc(C#N)cc1F [ps306a] | 0 to 20 | 
